# Experiments:
# [1] = system: Hsp70 (HspA1A and HspA1B) in PBMC; assay: Hsp70 level in PBMC samples of NPC patients treated with arimoclomol (ELISA); type: in vivo, human
# Experimental: Whole blood samples were collected in 6 mL EDTA tubes at the clinical study sites and shipped ambient to a central laboratory for sample preparation.
# Clinical study samples (n=26) were obtained from individuals with Niemann Pick disease Type C (NPC patients), who were 2 to 18 years of age, diagnosed with NPC, had at least one neurological symptom and had preserved ability to walk with assistance. Patients were maintained on standard therapy during the study. Samples were collected at a first clinical study visit (inclusion) and at a second clinical study visit 6 to 14 months following the first visit.
# Plasma was separated from whole blood by centrifugation at room temperature. Blood volume was restored in PBS and PBMCs were isolated by density gradient centrifugation using Histopaque™. Viable PBMC cell count was determined by flow cytometry. Aliquots of 1 mio. PBMC were generated and stored frozen at −70° C.
# Hsp70 was quantified using the Human/Mouse/Rat total HSP70 DuoSet® IC ELISA kit (R&D Systems). Prior to analysis of the clinical study samples, the analytical method had been qualified for determination of Hsp70 in human PBMC samples. The Human/Mouse/Rat total HSP70 DuoSet® IC ELISA kit detects the levels of HspA1A and HspA1B with no cross-reactivity of HspA5 and HspA8.
# The materials and methods were performed as described in Example 1.
# The Hsp70 concentration was measured in homogenates of Peripheral Blood Mononuclear Cells (PBMC). Hsp70 was determined in an observational study (FIGS. 4 and 5), at screening (pretreatment) and then again after 6-14 months (baseline). Patients were treated for 12 months with arimoclomol (Clinicaltrials.gov identifier NCT02612129). Hsp70 levels were analyzed by the Wilcoxon signed rank test for the 12 patients on arimoclomol with baseline and 12 months data point comparing the Hsp70 levels before and after 12 months of treatment.
# mutant NPC1 mice = conditions: cited from earlier work
# [2] = PBMC homogenates, 12 months of treatment vs baseline, n=12
compound,measurement,setting,value
"[O-][n+]1cccc(/C(Cl)=N/OC[C@H](O)CN2CCCCC2)c1 [arimoclomol, N-[2-hydroxy-3-(1-piperidinyl)-propoxy]-pyridine-1-oxide-3-carboximidoyl chloride]","Hsp70 change from baseline, Median",[1]; [2],1175.5 pg/mL
same,"Hsp70 change from baseline, Min-max",[1]; [2],234.7 to 6509.0 pg/mL
same,"Hsp70 change from baseline, mean (SD)",[1]; [2],1815.0 (1754.6) pg/mL
same,PBMC-level of Hsp70 compared to baseline,[1]; treatment for 12 months,significantly increased
same,neuronal as well as visceral pathology,mutant NPC1 mice,reversed
same,size of the lysosomal compartment,mutant NPC1 mice,reduced

# — patent US20210164997A1, “HSP70 PROTEIN LEVELS IN PBMC SAMPLES AS BIOMARKER FOR DISEASE” (Orphazyme A/S, priority 2018, published 2021)
